Measurements taken from patent US20260263442A1, “METHOD FOR TREATING L-DOPA-INDUCED DYSKINESIA USING BEFIRADOL” (Neurolixis, Inc., priority 2023, published 2026).
Values joined by “and” are separate entries in the source; they are usually repeats but may differ in a detail not shown here. Identical values can stand only once. Like-named read-outs stand apart in the source and are kept apart here.

Assays:
[1] = test system: overall PD symptoms in PD patients with LID; type: in vivo, human
Source text: The CGI-C is a clinician-oriented scale that assesses the total improvement in the patient's condition relative to the clinical global impression of severity (CGI-S) scale conducted at baseline. The CGI-C rates the patient's condition from 0 to 7, with a rating of 0 indicating “no assessment”, a rating of 1 indicating “very much better”, and a rating of 7 indicating “very much worse”.

[2] = test system: quality of life in PD patients with LID; assay: Parkinson's Disease Questionnaire (PDQ39), Phase 2a study; type: in vivo, human
Source text: The PDQ39-item patient reported outcome of health status and quality of life and is the most frequently used disease-specific health status measure for PD. The questionnaire assesses how often people affected by PD experience difficulties across 8 dimensions of daily living. The standard PDQ39 assesses quality of life over the previous month. In this study the initial time period assessed at the Baseline Visit would be the previous month, with subsequent assessments for the intervening period since the last clinic visit (about 3 weeks). The 8 quality of life dimensions covered in the questionnaire are: • Mobility (10 items #1-10) • ADL (6 items #11-16) • Emotional Well Being (6 items #17-22) • Stigma (4 items #23-26) • Social Support (3 items #27-29) • Cognition (4 items #30-33) • Communications (3 items #34-36) • Bodily Discomfort (3 items #37-39) Individual items are rated by the patient on a scale of […]. Dimension scores are calculated on a scale of 0 to 100. The total score and individual dimension scores would be assessed for change from baseline.

[3] = test system: anxiety and depression in PD patients with LID; assay: Hospital Anxiety Depression Scale (HADS), Phase 2a study; type: in vivo, human
Source text: The HADS is used to determine the levels of anxiety and depression that a person is experiencing. The questionnaire consists of 7 items related to anxiety and 7 related to depression. Each item on the questionnaires is scored from 0-3, which means that a person can score between 0 and 21 for either anxiety or depression.

[4] = test system: sleepiness in PD patients with LID; assay: Epworth Sleepiness Scale (ESS), Phase 2a study; type: in vivo, human
Source text: The ESS is a self-administered questionnaire with 8 questions. Respondents are asked to rate, on a 4-point scale (0-3), their usual chances of dozing off or falling asleep while engaged in 8 different activities. The ESS score (the sum of 8 item scores, 0-3) can range from 0 to 24. Ratings are based on the previous month, or in the case of this study, the intervening period since the previous clinic visit (about 3 weeks).

6-OH-DA lesioned rats = settings: cited from earlier work
[5] = test system: models of pain, forced swim test, spinal cord injury model; settings: animal experiments; cited from earlier work
[6] = in vivo; cited from earlier work
[7] = test system: Parkinson's disease symptoms in PD patients with LID; assay: Unified Parkinson's Disease Rating Scale (UPDRS), Phase 2a study; settings: for UPDRS Part 3, Baseline / UPDRS Part 3, Δ / UPDRS Total, Baseline / UPDRS Total, Δ: on NLX-112
Method: Because the level of dyskinesia experienced by patients can vary over time, they were given 150% (i.e., 1.5×) of their regular L-DOPA dose (up to a maximum of 250 mg) as a challenge 30 min before each dyskinesia assessment to improve comparability between patients and between visits. […] PD symptoms were assessed by Unified Parkinson's Disease Rating Scale (UPDRS) 30-90 min after the 150% L-DOPA challenge (i.e., when the patient was ON). Changes from baseline are shown for total score (i.e., Parts 1 to 4) and individual scores for each Part, 1, 2, 3 and 4.
Patients were challenged with 150% of their standard L-DOPA dose (maximum L-DOPA dose 250 mg) 30 minutes prior to the first UDysRS assessment. • Change from baseline in UDysRS total score at Day 28 and Day 42, after a 150% L-DOPA dose challenge. • Change from baseline in total objective score (Parts III, IV) of the UDysRS at Day 28 and Day 42, after a 150% L-DOPA dose challenge. • Change from baseline in ON Time Without Troublesome Dyskinesia (ON Without Dyskinesia plus ON With Non-troublesome Dyskinesia) based on a PD Home Dyskinesia Diary. • Change from baseline in Unified Parkinson's Disease Rating Scale (UPDRS) scores (Part III, motor examination). • Change from baseline in UPDRS combined scores (Parts I, II, III and IV). • Clinical Global Impression of Change (CGI-C) in overall PD symptoms • Change from baseline in dyskinesia scores measured by the Kinesia 360 (Great Lakes Neurotechnologies, Inc) wearable dyskinesia assessment system.
The UPDRS consists of 4 parts: • Part I assesses non-motor experiences of daily living, such as cognitive impairment and depressed mood. • Part II assesses motor experiences of daily living, such as speech and eating tasks. • Part III is a motor examination conducted by the clinician, including assessments of symptoms such as rigidity and tremor. • Part IV is an assessment of motor complications, such as time spent with dyskinesia and functional impact of dyskinesias.
Each item in the UPDRS is scored from 0 to 4, and the individual scores are summed to give a total score that indicates the severity of the disease, with a score of 0 indicating no disability and a score of 199 being the most severe (indicating total disability).
Change from baseline in UPDRS combined scores (Parts I, II, III and IV) to Visit 6 (Day 28) and Visit 7 (Day 42) respectively would be summarized using descriptive statistics. […] The same analysis would be done for UPDRS Part III only.

[8] = change from baseline at day 28 (end of up-titration period), Per Protocol Set, n = 15
[9] = change from baseline at day 42 (end of stable dosing period), Per Protocol Set, n = 15
[10] = Baseline, Per Protocol Set, n = 15
[11] = Baseline, mean (SD), per-protocol set n = 15
[12] = Day 28, mean (SD), per-protocol set n = 15
[13] = Day 42, mean (SD), per-protocol set n = 15
[14] = Patient A, amantadine treatment 1 year
[15] = Patient B, amantadine treatment 2 years
[16] = Patient C, amantadine treatment 7 years
[17] = Patient D, amantadine treatment 11 years
[18] = Patient E, amantadine treatment 6 years
[19] = Visit 2 Baseline, Per protocol analysis set, n 15
[20] = Visit 6 Clinic Efficacy Visit (Day 28), Per protocol analysis set, n 15
[21] = Visit 6 Clinic Efficacy Visit, Full analysis set, n=15
[22] = Visit 7 Clinic Efficacy Visit (Day 42), Per protocol analysis set, n 15
[23] = Visit 7 Clinic Efficacy Visit, Full analysis set, n=15
[24] = Visit 9 Follow-up Clinic Visit, Full analysis set, n=15
[25] = Visit 9 Follow-up Clinic Visit, Per protocol analysis set, n 15

In the case of `Cc1ccc(CNCC2(F)CCN(C(=O)c3ccc(F)c(Cl)c3)CC2)nc1` [NLX-112], the “CGI-C, proportion of patients improved (minimally, much or very much improved)” value ([1]; day 28) is reported as 33%, the “CGI-C, proportion of patients improved (minimally, much or very much improved)” value ([1]; day 42) is reported as 53% and the “Quality of life (PDQ39 score), effect” value ([2]; Days 28 or 42) is reported as “no consistent statistically significant effect”. The “PDQ39, Δ D28, mean (S.D.)” value [2, 8] was −1.5 (8.0), the “PDQ39, Δ D42, mean (S.D.)” value [2, 9] was −0.6 (6.5) and the “HADS (Anxiety), Baseline, mean (S.D.)” value [3, 10] was 4.5 (2.5). The “HADS (Depression), Baseline, mean (S.D.)” value [3, 10] was 3.7 (2.7), the “Anxiety and depression (HADS), effect” value ([3]; Days 28 or 42) was “no consistent statistically significant effect” and the “HADS (Anxiety), Δ D28, mean (S.D.)” value [3, 8] was −0.5 (2.5). The “HADS (Depression), Δ D28, mean (S.D.)” value [3, 8] was −0.4 (1.7), the “HADS (Depression), Δ D42, mean (S.D.)” value [3, 9] was −0.6 (1.9) and the “ESS, Baseline, mean (S.D.)” value [4, 10] was 8.3 (5.2). For the same molecule, the “Sleepiness (ESS), effect” value ([4]; Days 28 or 42) was “no consistent statistically significant effect”, the “ESS, Δ D28, mean (S.D.)” value [4, 8] was −1.1 (3.3) and the “ESS, Δ D42, mean (S.D.)” value [4, 9] was −0.9 (3.4). The Rotation behavior (6-OH-DA lesioned rats; 6-OH-DA lesioned rats) was “increases rotation behavior”, the “Dopamine surge following L-DOPA administration” value (6-OH-DA lesioned rats; parkinsonian rat model of LID) was “blunted” and the “Striatal 5-HT release” value (6-OH-DA lesioned rats; parkinsonian rat model of LID) was “inhibited striatal 5-HT release”. The “Antidyskinetic efficacy against L-DOPA-induced dyskinesia on chronic administration” value (6-OH-DA lesioned rats; rat, 2-week treatment period) was “did maintain its antidyskinetic efficacy”, the “Activity in models of pain, forced swim test and urinary function in a spinal cord injury model” value [5] was “pronounced activity” and the “Blood concentrations that could be associated with side effects, such as dizziness” value [6] was “higher than 15 ng/ml”. The “UPDRS Part 1” value [7, 11] was 1.0 (1.0), the “UPDRS Part 4” value [7, 11] was 8.0 (2.0) and the “UPDRS Part 3, change from baseline” value [7, 12] was −3.7 points and −3.7 (4.7)**# points. For the same molecule, the “UPDRS Total (Parts 1 to 4), change from baseline” value [7, 12] was −6.5 points and −6.5 (7.6)*** points, the “UPDRS Part 3, change from baseline” value [7, 13] was −3.7 points and −3.7 (4.6)** points and the “UPDRS Total (Parts 1 to 4), change from baseline” value [7, 13] was −5.7 points and −5.7 (6.0)** points. The “UPDRS Part 3, Baseline” value [7, 14] was 8, the “UPDRS Part 3, Δ” value [7, 14] was −4 and the “UPDRS Total, Baseline” value [7, 14] was 22. For the same molecule, the “UPDRS Total, Δ” value [7, 14] was −5, the “UPDRS Part 3, Baseline” value [7, 15] was 22 and the “UPDRS Part 3, Δ” value [7, 15] was −9. The “UPDRS Total, Baseline” value [7, 15] was 44, the “UPDRS Total, Δ” value [7, 15] was −15 and the “UPDRS Part 3, Baseline” value [7, 16] was 28. The “UPDRS Part 3, Δ” value [7, 16] was −13, the “UPDRS Total, Baseline” value [7, 16] was 51 and the “UPDRS Total, Δ” value [7, 16] was −11. The “UPDRS Part 3, Baseline” value [7, 17] was 11, the “UPDRS Part 3, Δ” value [7, 17] was “+3” and the “UPDRS Total, Baseline” value [7, 17] was 26. The “UPDRS Total, Δ” value [7, 17] was −5, the “UPDRS Part 3, Baseline” value [7, 18] was 15 and the “UPDRS Part 3, Δ” value [7, 18] was “+2”. The “UPDRS Total, Baseline” value [7, 18] was 30, the “UPDRS Total, Δ” value [7, 18] was “+3” and the “UPDRS Part 3 Motor Total, collected value, Median (Min, Max)” value ([7]; Visit 2 Baseline, Full analysis set, n=18) was 16.0 (3, 39). The “UPDRS Part 3 Motor Total, collected value, Median (Min, Max)” value [7, 19] was 17.0 (3, 39), the “UPDRS Total Score, Collected value, Mean (SD)” value [7, 19] was 37.0 (13.3) and the “UPDRS Total Score, Collected value, Median (Min, Max)” value [7, 19] was 36.0 (17, 66). The “UPDRS Part 3 Motor Total, absolute change from baseline, Mean (SD)” value [7, 20] was −3.7 (4.7), the “UPDRS Part 3 Motor Total, absolute change from baseline, Median (Min, Max)” value [7, 20] was −4.0 (−12, 5) and the “UPDRS Part 3 Motor Total, collected value, Median (Min, Max)” value [7, 20] was 14.0 (2, 30). For the same molecule, the “UPDRS Total Score, Absolute change from baseline, Mean (SD)” value (“UPDRS Total Score, Absolute change … (SD)” below) [7, 20] was −6.5 (7.6), the “UPDRS Total Score, Absolute change from baseline, Median (Min, Max)” value [7, 20] was −5.0 (−23, 6) and the “UPDRS Total Score, Collected value, Median (Min, Max)” value [7, 20] was 29.0 (13, 54). For the same molecule, the “UPDRS Part 3 Motor Total, absolute change from baseline, Mean (SD)” value [7, 21] was −3.7 (4.7), the “UPDRS Part 3 Motor Total, absolute change from baseline, Median (Min, Max)” value [7, 21] was −4.0 (−12, 5) and the “UPDRS Part 3 Motor Total, collected value, Median (Min, Max)” value [7, 21] was 14.0 (2, 30). For the same molecule, the “UPDRS Total Score (all Parts), absolute change from baseline, Mean (SD)” value [7, 21] was −6.5 (7.6), the “UPDRS Total Score (all Parts), absolute change from baseline, Median (Min, Max)” value [7, 21] was −5.0 (−23, 6) and the “UPDRS Total Score (all Parts), collected value, Median (Min, Max)” value [7, 21] was 29.0 (13, 54). For the same molecule, the “UPDRS Part 3 Motor Total, absolute change from baseline, Mean (SD)” value [7, 22] was −3.7 (4.6), the “UPDRS Part 3 Motor Total, absolute change from baseline, Median (Min, Max)” value [7, 22] was −4.0 (−13, 3) and the “UPDRS Part 3 Motor Total, collected value, Median (Min, Max)” value [7, 22] was 14.0 (1, 35). For the same molecule, the “UPDRS Total Score, Absolute change … (SD)” value [7, 22] was −5.7 (6.0), the “UPDRS Total Score, Absolute change from baseline, Median (Min, Max)” value [7, 22] was −5.0 (−15, 4) and the “UPDRS Total Score, Collected value, Median (Min, Max)” value [7, 22] was 30.0 (15, 63). The “UPDRS Part 3 Motor Total, absolute change from baseline, Mean (SD)” value [7, 23] was −3.7 (4.6), the “UPDRS Part 3 Motor Total, absolute change from baseline, Median (Min, Max)” value [7, 23] was −4.0 (−13, 3) and the “UPDRS Part 3 Motor Total, collected value, Median (Min, Max)” value [7, 23] was 14.0 (1, 35). The “UPDRS Total Score (all Parts), absolute change from baseline, Mean (SD)” value [7, 23] was −5.7 (6.0), the “UPDRS Total Score (all Parts), absolute change from baseline, Median (Min, Max)” value [7, 23] was −5.0 (−15, 4) and the “UPDRS Total Score (all Parts), collected value, Median (Min, Max)” value [7, 23] was 30.0 (15, 63). The “UPDRS Part 3 Motor Total, absolute change from baseline, Mean (SD)” value [7, 24] was −2.7 (5.5), the “UPDRS Part 3 Motor Total, absolute change from baseline, Median (Min, Max)” value [7, 24] was −2.0 (−15, 4) and the “UPDRS Part 3 Motor Total, collected value, Median (Min, Max)” value [7, 24] was 13.0 (2, 32). The “UPDRS Total Score (all Parts), absolute change from baseline, Mean (SD)” value [7, 24] was −4.4 (9.0), the “UPDRS Total Score (all Parts), absolute change from baseline, Median (Min, Max)” value [7, 24] was −3.0 (−20, 7) and the “UPDRS Total Score (all Parts), collected value, Median (Min, Max)” value [7, 24] was 31.0 (15, 56). For the same molecule, the “UPDRS Part 3 Motor Total, absolute change from baseline, Mean (SD)” value [7, 25] was −2.7 (5.5), the “UPDRS Part 3 Motor Total, absolute change from baseline, Median (Min, Max)” value [7, 25] was −2.0 (−15, 4) and the “UPDRS Part 3 Motor Total, collected value, Median (Min, Max)” value [7, 25] was 13.0 (2, 32). The “UPDRS Total Score, Absolute change … (SD)” value [7, 25] was −4.4 (9.0), the “UPDRS Total Score, Absolute change from baseline, Median (Min, Max)” value [7, 25] was −3.0 (−20, 7) and the “UPDRS Total Score, Collected value, Median (Min, Max)” value [7, 25] was 31.0 (15, 56). The “Reduction in UPDRS Part 3 scores, more than placebo” value ([7]; day 42) was 3.9 points, the “Amantadine co-treated NLX-112 patients with decreases in UPDRS total score and UPDRS Part 3” value ([7]; five patients also receiving amantadine) was “three” and the “Effect on the beneficial anti-parkinsonian effects of L-DOPA” value ([7]; in vivo) was “did not worsen, and actually enhanced, the beneficial effects of L-DOPA”. For the same molecule, the “Amantadine co-treated NLX-112 patients with numerical reductions in PD symptoms (UPDRS)” value ([7]; patients on NLX-112 and amantadine) was 4 of the 5.
